Experimental data from patent US20050238706A1, “Pharmaceutically active lipid based formulation of SN-38” (NeoPharm, Inc., priority 2002, published 2005).

What was measured:
[1] = tested on: Capan-1 human pancreatic cancer cells; assay: Therapeutic efficacy in Capan-1 xenograft, SCID mice; assay type: in vivo; conditions: day 28 post treatment, n = 5
Source text: (§1) Either female CD2F1 (6-8 weeks old) mice or female C.B-17 SCID mice (4-6 weeks old) were obtained from the vendor and maintained as described previously. The CD2F1 mice were transplanted with P388 murine leukemia tumor cells, whereas the SCID mice were transplanted with HT-29 human colon cancer cells, Capan-1 human pancreatic cancer cells and MX-1 human breast cancer cells. After a suitable waiting period (waiting period varied based on the tumor models), each mouse received intravenous injection via tail vein of placebo liposomes, LE-SN38 or CPT-11 at pre-determined dose levels.

[2] = tested on: HT-29 human colon cancer cells; assay: Therapeutic efficacy in HT-29 xenograft, SCID mice; assay type: in vivo; conditions: 8 mg/kg × 5, iv, day 28 post treatment, n = 5
Source text: as §1

[3] = tested on: P388 murine leukemia tumor cells; assay: Therapeutic efficacy in P388 tumor bearing CD2F1 mice; assay type: in vivo, mouse; conditions: for 60-day % Survival: n = 10
Source text: as §1

[4] = cited from earlier work
[5] = tested on: topoisomerase I purified from human and rodent tumor cell lines; conditions: enzyme purified from human and rodent tumor cell lines; cited from earlier work

With `CCc1c2c(nc3ccc(OC(=O)N4CCC(N5CCCCC5)CC4)cc13)-c1cc3c(c(=O)n1C2)COC(=O)[C@]3(O)CC` [CPT-11, irinotecan] the “% Growth Inhibition” value ([1]; 8 mg/kg × 5, iv) was 47.8%, the “% Growth Inhibition” value ([1]; 16 mg/kg × 5, iv) was 68.7% and the “% Growth Inhibition” value [2] was 36%. For the same compound, the median survival time ([3]; 4 mg/kg for 5 consecutive days) was 16 days, the “60-day % Survival” value ([3]; 4 mg/kg × 5, iv) was 0% and the median survival time ([3]; 8 mg/kg for 5 consecutive days) was 20 days. For the same compound, the “60-day % Survival” value ([3]; 8 mg/kg × 5, iv) was 0% and the median survival time ([3]; 16 mg/kg for 5 consecutive days) was 22 days.

For `CCc1c2c(nc3ccc(O)cc13)-c1cc3c(c(=O)n1C2)COC(=O)[C@]3(O)CC` [SN38, (+)-(4S)-4,11-diethyl-4,9-dihydroxy-1H-pyrano[3′,4′:6,7]-indolizino[1,2-b]quinoline-3,14(4H,12H)-dione], the “solubility in aqueous solutions” value [4] is listed as “exceedingly insoluble” and the “potency as an inhibitor of topoisomerase I relative to irinotecan” value [5] is listed as “approximately 1000 times”.
